In PubChem BioAssay AID2060605 (Molecular Pharmacology Branch, DTP, NCI, 2025):
Several values for one entry are separate records, joined by “and”; a condition that tells them apart may be missing. Equal values may be shown once.

Tested on: 947758-054-R-J2-PDC spheroid growth, percent test/control
Assay: Anticancer human tumor 947758-054-R-J2-PDC patient-derived colon adenocarcinoma cell line growth inhibition [CLK]
Settings: spheroids with HUVEC and MSC; for viability, T/C: stronger effect = lower value
Outline: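 Patient-derived tumor cells grown as complex spheroids with HUVEC endothelial cells and mesenchymal stem cells, treated with drug combinations. Concentrations descend in half-log steps from near clinical Cmax, or from 10 microM if Cmax unknown.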

[1] = curve of first compound, second compound 0.0316 µM
[2] = curve of first compound, second compound 0.1 µM
[3] = curve of first compound, second compound 0.316 µM
[4] = curve of first compound, second compound 1 µM
[5] = curve of first compound, second compound 3.16 µM
[6] = curve of first compound, second compound 10 µM
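Further: spheroids exposed to compounds for one week before readout.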
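Wherever viability, T/C is given: 100% = DMSO vehicle control wells.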

In the case of `CCN1CCN(Cc2ccc(Nc3ncc(F)c(-c4cc(F)c5nc(C)n(C(C)C)c5c4)n3)nc2)CC1`, the viability, T/C (compound 0.00316 µM) is reported as 81.3% and 94.8%, the viability, T/C (compound 0.01 µM) is reported as 81.6% and 106% and the viability, T/C (compound 0.0316 µM) is reported as 139% and 190%. The viability, T/C (compound 0.1 µM) was 164% and 182%, the viability, T/C (compound 0.316 µM) was 130% and 126% and the viability, T/C (compound 1 µM) was 43% and 55.8%. For the same compound, the IC50 (curve of compound) was 900 nM and > 1000 nM.
In the case of `CC(C)CC(NC(=O)C(Cc1ccccc1)NC(=O)c1cnccn1)B(O)O` (stereo unspecified) + CN1CCN(c2cc(C(=O)Nc3cc4cc(-c5cnn(C)c5)ccc4cn3)ccn2)CC1, the IC50 [1] is reported as 1.92 nM, the IC50 [2] is reported as 2.41 nM and the IC50 [3] is reported as less than 0.949 nM. For the same compound, the IC50 [4] was less than 0.949 nM, the IC50 [5] was less than 0.949 nM and the IC50 [6] was less than 0.949 nM. For the same compound, the viability, T/C (second compound 0.0316 µM, first compound 0.000949 µM) was 121%, the viability, T/C (second compound 0.0316 µM, first compound 0.003 µM) was 5.43% and the viability, T/C (second compound 0.0316 µM, first compound 0.00949 µM) was 0.78%. For the same compound, the viability, T/C (second compound 0.0316 µM, first compound 0.03 µM) was 0.27%, the viability, T/C (second compound 0.0316 µM, first compound 0.0949 µM) was 0.29% and the viability, T/C (second compound 0.0316 µM, first compound 0.3 µM) was 0.27%. For the same compound, the viability, T/C (second compound 0.1 µM, first compound 0.000949 µM) was 229%, the viability, T/C (second compound 0.1 µM, first compound 0.003 µM) was 7.59% and the viability, T/C (second compound 0.1 µM, first compound 0.00949 µM) was 0.31%. It also gave a viability, T/C (second compound 0.1 µM, first compound 0.03 µM) of 0.29%, a viability, T/C (second compound 0.1 µM, first compound 0.0949 µM) of 0.32% and a viability, T/C (second compound 0.1 µM, first compound 0.3 µM) of 0.3%. For the same compound, the viability, T/C (second compound 0.316 µM, first compound 0.000949 µM) was 1.38%, the viability, T/C (second compound 0.316 µM, first compound 0.003 µM) was 0.21% and the viability, T/C (second compound 0.316 µM, first compound 0.00949 µM) was 0.22%. It also gave a viability, T/C (second compound 0.316 µM, first compound 0.03 µM) of 0.22%, a viability, T/C (second compound 0.316 µM, first compound 0.0949 µM) of 0.2% and a viability, T/C (second compound 0.316 µM, first compound 0.3 µM) of 0.23%. The viability, T/C (second compound 1 µM, first compound 0.000949 µM) was 0.14%, the viability, T/C (second compound 1 µM, first compound 0.003 µM) was 0.15% and the viability, T/C (second compound 1 µM, first compound 0.00949 µM) was 0.15%. For the same compound, the viability, T/C (second compound 1 µM, first compound 0.03 µM) was 0.16%, the viability, T/C (second compound 1 µM, first compound 0.0949 µM) was 0.18% and the viability, T/C (second compound 1 µM, first compound 0.3 µM) was 0.15%. For the same compound, the viability, T/C (second compound 3.16 µM, first compound 0.000949 µM) was 0.21%, the viability, T/C (second compound 3.16 µM, first compound 0.003 µM) was 0.12% and the viability, T/C (second compound 3.16 µM, first compound 0.00949 µM) was 0.12%. The viability, T/C (second compound 3.16 µM, first compound 0.03 µM) was 0.13%, the viability, T/C (second compound 3.16 µM, first compound 0.0949 µM) was 0.21% and the viability, T/C (second compound 3.16 µM, first compound 0.3 µM) was 2.33%. For the same compound, the viability, T/C (second compound 10 µM, first compound 0.000949 µM) was 0.34%, the viability, T/C (second compound 10 µM, first compound 0.003 µM) was 0.18% and the viability, T/C (second compound 10 µM, first compound 0.00949 µM) was 1.25%. For the same compound, the viability, T/C (second compound 10 µM, first compound 0.03 µM) was 0.16%, the viability, T/C (second compound 10 µM, first compound 0.0949 µM) was 0.21% and the viability, T/C (second compound 10 µM, first compound 0.3 µM) was 1.68%.
`C#Cc1c(F)ccc2cc(O)cc(-c3ncc4c(N5CC6CCC(C5)N6)nc(OCC56CCCN5CC(F)C6)nc4c3F)c12` (stereo unspecified) + CNC(=O)c1ccc(Nc2nc(OC3CCCC3)c3c(-c4ccc5nc(C)oc5c4)c[nH]c3n2)c(OC)c1 showed an IC50 [1] greater than 10000 nM, an IC50 [2] greater than 10000 nM and an IC50 [3] greater than 10000 nM. It also gave an IC50 [4] of 3640 nM, an IC50 [5] of less than 31.6 nM and an IC50 [6] of less than 31.6 nM. The viability, T/C (second compound 0.0316 µM, first compound 0.0316 µM) was 82.3%, the viability, T/C (second compound 0.0316 µM, first compound 0.1 µM) was 77.8% and the viability, T/C (second compound 0.0316 µM, first compound 0.316 µM) was 79.1%. The viability, T/C (second compound 0.0316 µM, first compound 1 µM) was 73.4%, the viability, T/C (second compound 0.0316 µM, first compound 3.16 µM) was 77% and the viability, T/C (second compound 0.0316 µM, first compound 10 µM) was 66.8%. For the same compound, the viability, T/C (second compound 0.1 µM, first compound 0.0316 µM) was 88.6%, the viability, T/C (second compound 0.1 µM, first compound 0.1 µM) was 92.6% and the viability, T/C (second compound 0.1 µM, first compound 0.316 µM) was 79%. For the same compound, the viability, T/C (second compound 0.1 µM, first compound 1 µM) was 91.7%, the viability, T/C (second compound 0.1 µM, first compound 3.16 µM) was 103% and the viability, T/C (second compound 0.1 µM, first compound 10 µM) was 79.2%. For the same compound, the viability, T/C (second compound 0.316 µM, first compound 0.0316 µM) was 64.9%, the viability, T/C (second compound 0.316 µM, first compound 0.1 µM) was 75.3% and the viability, T/C (second compound 0.316 µM, first compound 0.316 µM) was 66.6%. For the same compound, the viability, T/C (second compound 0.316 µM, first compound 1 µM) was 91%, the viability, T/C (second compound 0.316 µM, first compound 3.16 µM) was 77.4% and the viability, T/C (second compound 0.316 µM, first compound 10 µM) was 56.4%. For the same compound, the viability, T/C (second compound 1 µM, first compound 0.0316 µM) was 44.4%, the viability, T/C (second compound 1 µM, first compound 0.1 µM) was 56.8% and the viability, T/C (second compound 1 µM, first compound 0.316 µM) was 47.4%. It also gave a viability, T/C (second compound 1 µM, first compound 1 µM) of 53.8%, a viability, T/C (second compound 1 µM, first compound 3.16 µM) of 55.8% and a viability, T/C (second compound 1 µM, first compound 10 µM) of 38.1%. For the same compound, the viability, T/C (second compound 3.16 µM, first compound 0.0316 µM) was 43.2%, the viability, T/C (second compound 3.16 µM, first compound 0.1 µM) was 35.4% and the viability, T/C (second compound 3.16 µM, first compound 0.316 µM) was 40.4%. It also gave a viability, T/C (second compound 3.16 µM, first compound 1 µM) of 46.7%, a viability, T/C (second compound 3.16 µM, first compound 3.16 µM) of 44.4% and a viability, T/C (second compound 3.16 µM, first compound 10 µM) of 29.5%. For the same compound, the viability, T/C (second compound 10 µM, first compound 0.0316 µM) was 36%, the viability, T/C (second compound 10 µM, first compound 0.1 µM) was 24.8% and the viability, T/C (second compound 10 µM, first compound 0.316 µM) was 30.9%. It also gave a viability, T/C (second compound 10 µM, first compound 1 µM) of 32.2%, a viability, T/C (second compound 10 µM, first compound 3.16 µM) of 31.7% and a viability, T/C (second compound 10 µM, first compound 10 µM) of 24.4%.
